From patent publication US20260221281A1, “PREDICTING PATIENT OUTCOMES RELATED TO PANCREATIC CANCER” (Valar Labs, Inc., priority 2023, published 2026) come the findings set out here.

The structures appear in SMILES notation.

Type in all cases: in vivo, human
In one assay the test system is resected PDAC. Description: DSS and RFS of post-operatively treated resected PDAC patients, external cohort stratified by gemcitabine-response signature (Example 4). As to conditions: external cohort (45 patients). An excerpt:
Digitized histological hematoxylin and cosin stained tissue microarray blocks corresponding to post-operatively treated resected PDAC patients from 2011-2015 were used in this experiment. Of the 45 patients, 22 were neoadjuvantly treated with either gemcitabine or 5-FIU backbone cytotoxic chemotherapy. Using the histologic images, the AI-based pathology platform extracted nuclei images from tissue regions using segmentation models and computed geometric features of these nuclei. Patients were stratified by the signature previously associated with gemcitabine response in a dataset into low and high risk groups, and Disease Specific Survival (DSS) and Recurrence Free Survival (RFS) was compared between the stratified groups via Kaplan Meier estimators and log-rank test.

The test system of assay [1] is resected pancreatic ductal adenocarcinoma (PDAC). In words: DSS and time to recurrence after adjuvant gemcitabine in resected PDAC, external cohort stratified by VPG signature. The note with it: for median time to recurrence: adjuvant gemcitabine-based therapy (n=46). The source says:
The first external data set represented a set of consecutive 24 patients treated with resection and adjuvant gemcitabine. Clinical data was obtained via manual chart review of the electronic medical record. Digitally scanned tissue microarray specimens were used for image analysis. The cores were 1 mm and were obtained from formalin-fixed, paraffin-embedded (FFPE) samples of extra portions of surgical resections. Whole tissue resection specimens were not available for analysis for this study. Scanned histologic images were analyzed through an AI-based pathology platform in accordance with the systems and methods described herein. The process included tissue segmentation, nuclei segmentation, and finally geometric feature extraction. Tissue was segmented via color-based thresholding to remove empty regions of the slide. Patches of size 2132×2132 were extracted from tissue regions and a validated deep learning model developed was used to segment and classify each nucleus automatically into five classes (i.e., Neoplastic, Connective, No-Neoplastic/Epithelial, Necrotic, Inflammatory). Descriptive morphometric features were then computed for each nucleus. Geometric features were then aggregated first at the patch, and subsequently at the patient level using summary statistics including the mean, standard deviation, skewness and kurtosis to produce the final feature vector for a patient. This feature vector was used as the input to a cox proportional hazards model that used the least absolute shrinkage and selection operator to identify the most correlated features with DSS along with their coefficients on the training set. Subsequently, the performance of the signature in stratifying patients was assessed in two external validation cohorts. A first external cohort 1005 included 45 patients who underwent PDAC resection followed by gemcitabine treatment for whom digitally scanned tissue microarrays of tumor specimens were available. A second external cohort 1007 included 161 patients, whose tumors were resected between 1978 and 2008, when adjuvant treatment was not administered as part of the standard of care. To investigate performance beyond the [NT], experiments applying the model in a retrospective cohort of adjuvant-gemcitabine-treated patients and a retrospective cohort of untreated patients were performed. As illustrated in FIGS. 17A-17D, the VPG signature generalizes to external cohorts of gemcitabine-treated patients but not untreated patients.

In a further assay the test system is resected PDAC tumors. In words: DSS of resected PDAC patients receiving gemcitabine, divided into two histological subtypes by the model (Example 3). An excerpt:
One hundred and thirty-nine (139) whole-slide digitized histological slides corresponding to one hundred and two (102) resected PDAC tumors from a data set were used as a training set. This dataset corresponded to patients that had received either gemcitabine-backbone or 5 FU-backbone chemotherapy as their first-line adjuvant treatment. An AI-based pathology platform such as the one described herein was used to extract nuclei images from tissue regions using segmentation models and compute geometric features of these nuclei. The subsequent features were then correlated with Disease Specific Survival (DSS) in order to construct a signature associated with treatment benefit. The resulting signature was compared against two board certified pathologists using the grade of the digital slides images to classify patients into above or below average DSS buckets.

The test system of assay [2] is resected pancreatic ductal adenocarcinoma (PDAC). In words: DSS after adjuvant gemcitabine in resected PDAC, TCGA test set stratified by VPG signature. An excerpt: Data from three cohorts of patients were utilized for this experiment: a cohort of 93 patients forming a training data set, a cohort of 46 patients forming a first external data set, and a cohort of 161 patients forming a second external data set. The training data set was identified by selecting PDAC patients who had received adjuvant gemcitabine and no 5-fluorouracil. The training data set included available histopathologic images, data on disease specific survival, and demographic details. From the available histopathologic images, the image identified as the diagnostic slide was used for image analysis by the AI-based pathology platform. Scanned histologic images were analyzed through an AI-based pathology platform in accordance with the systems and methods described herein. The process included tissue segmentation, nuclei segmentation, and finally geometric feature extraction. Tissue was segmented via color-based thresholding to remove empty regions of the slide. Patches of size 2132×2132 were extracted from tissue regions and a validated deep learning model developed was used to segment and classify each nucleus automatically into five classes (i.e., Neoplastic, Connective, No-Neoplastic/Epithelial, Necrotic, Inflammatory). Descriptive morphometric features were then computed for each nucleus. Geometric features were then aggregated first at the patch, and subsequently at the patient level using summary statistics including the mean, standard deviation, skewness and kurtosis to produce the final feature vector for a patient. This feature vector was used as the input to a cox proportional hazards model that used the least absolute shrinkage and selection operator to identify the most correlated features with DSS along with their coefficients on the training set. FIG. 9 provides an illustration of a process to construct a histologic signature associated with disease-specific survival (DSS) after adjuvant gemcitabine. A dataset of scanned whole slide images and the associated clinical data from a cohort of 93 PDAC patients treated with adjuvant gemcitabine in The Cancer Genome Atlas (TCGA) was analyzed. The process to construct a histologic signature includes obtaining a slide 901, digitizing a slide 903, and determining the presence or absence of a histologic biomarker 905. Slides may be obtained in step 901 by resection of pancreatic ductal adenocarcinoma (PDAC). The slides may then then be digitized in step 903 by scanning hematoxylin and eosin-stained resection specimens for whole slide images and subsequently performing digital pathology analysis. […]

For `Nc1ccn([C@@H]2O[C@H](CO)[C@@H](O)C2(F)F)c(=O)n1` [gemcitabine], the “median DSS” value with resected PDAC (high risk group) was determined as 16 months; with resected PDAC (low risk group), 43 months; in assay [1] (adjuvant gemcitabine-based therapy, external cohort (n=46), negative VPG signature) it was 16 months; in assay [1] (adjuvant gemcitabine-based therapy, external cohort (n=46), positive VPG signature), 43.1 months; in assay [1] (external cohort, no therapy prior to surgery (n=24), negative VPG signature), 12.9 months; in assay [1] (external cohort, no therapy prior to surgery (n=24), positive VPG signature) it was 40.2 months. Moreover, the “median DSS” value with resected PDAC tumors (first histological subtype (threshold: average expected lifetime)) is reported as 586 days; in the assay on resected PDAC tumors (second histological subtype (threshold: average expected lifetime)), 394 days; in assay [2] (TCGA validation subset (47 patients), negative VPG signature) it was 16.0 months; in assay [2] (TCGA validation subset (47 patients), positive VPG signature) it was 67.9 months; in assay [2] (sub-group of 39 validation patients with RNAseq data, negative VPG signature) it was 16.0 months; in assay [2] (sub-group of 39 validation patients with RNAseq data, positive VPG signature), 67.9 months. The “median RFS” value in the assay with resected PDAC (high risk group) is given as 9.1 months; with resected PDAC (low risk group), 22.6 months. Further, the “median time to recurrence” value in assay [1] (negative VPG signature) stood at 9.1 months; in assay [1] (positive VPG signature), 22.6 months.
